Key:
brain = test: Matured TTM-001 and TTM-002 variants, NGS enrichment in mouse brain; assay type: in vivo, mice; settings: relative to AAV9 control
[1] = test system: brains, heart, liver, muscle, and DRG of the NHPs; test: Maturation of TTM-001 and TTM-002 capsids, NGS enrichment in NHP tissues; assay type: in vivo; settings: relative to AAV9 control
Method in brief: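 Variants carry mutations within and flanking the loop IV peptide insert: positions 450–466 were triplet-randomized, while positions 449–466 received low-frequency point mutations. The combined pool went into two NHPs, and each peptide was scored by NGS enrichment ratio against AAV9.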

[2] = NGS fold-enrichment, brain of mice
[3] = NGS fold-enrichment, DRG of NHPs
[4] = NGS fold-enrichment, RNA, brain of NHPs
[5] = NGS fold-enrichment, heart of NHPs
[6] = NGS fold-enrichment, liver DNA of NHPs
[7] = NGS fold-enrichment, liver RNA of NHPs
[8] = NGS fold-enrichment, muscle of NHPs
[9] = NGS fold-enrichment, mouse brain
[10] = NGS fold-enrichment of RNA, NHP brain
[11] = NGS fold-enrichment, NHP liver DNA
[12] = NGS fold-enrichment, NHP liver RNA
[13] = NGS fold-enrichment, NHP muscle
[14] = NGS fold-enrichment of matured AAV capsid variants, NHP brain, RNA

Sequence | Fold Enrichment relative to AAV9, Brain (Mouse) (brain; [2]) | Fold Enrichment relative to AAV9, DRG (NHP) [1, 3] | Fold Enrichment relative to AAV9, Brain (NHP) [1, 4] | Fold Enrichment relative to AAV9, Heart (NHP) [1, 5] | Fold Enrichment relative to AAV9, Liver DNA (NHP) [1, 6] | Fold Enrichment relative to AAV9, Liver RNA (NHP) [1, 7] | Fold Enrichment relative to AAV9, Muscle (NHP) [1, 8] | Fold Enrichment relative to AAV9, Brain (Mouse) (brain; mouse brain) | Fold Enrichment relative to AAV9, Brain (NHP) [1, 14] | Fold Enrichment relative to AAV9, DRG (NHP) ([1]; NHP DRG) | Fold Enrichment relative to AAV9, Heart (NHP) ([1]; NHP heart) | Fold Enrichment relative to AAV9, Liver DNA (NHP) ([1]; NHP liver, DNA) | Fold Enrichment relative to AAV9, Liver RNA (NHP) ([1]; NHP liver, RNA) | Fold Enrichment relative to AAV9, Muscle (NHP) ([1]; NHP muscle) | further results
KTINGSGSPHSKAHNQQR | 107.301 fold | 0.562 fold | 74.272 fold | 0.486 fold | 0.057 fold | 0.956 fold | 0.047 fold | – | – | – | – | – | – | – | –
KTINGSGSPHSKAHVRQT | 165.590 fold | 0.000 fold | 119.798 fold | 0.000 fold | 1.039 fold | 0.694 fold | 0.262 fold | – | – | – | – | – | – | – | Fold Enrichment relative to AAV9, Brain (Mouse) (brain; [9]): 165.590 fold; Fold Enrichment relative to AAV9, Brain (NHP) [1, 10]: 119.798 fold; Fold Enrichment relative to AAV9, DRG (NHP) ([1]; NGS fold-enrichment, NHP DRG): 0.000 fold; Fold Enrichment relative to AAV9, Heart (NHP) ([1]; NGS fold-enrichment, NHP heart): 0.000 fold; Fold Enrichment relative to AAV9, Liver DNA (NHP) [1, 11]: 1.039 fold; Fold Enrichment relative to AAV9, Liver RNA (NHP) [1, 12]: 0.694 fold; Fold Enrichment relative to AAV9, Muscle (NHP) [1, 13]: 0.262 fold
KTINGSGSPHSKAIGKQT | – | – | – | – | – | – | – | 110.132 fold | 56.158 fold | 0.000 fold | 0.000 fold | 0.088 fold | 0.887 fold | 0.000 fold | –
KTINGSGSPHSKALHQHT | 68.196 fold | 0.000 fold | 77.502 fold | 0.052 fold | 0.188 fold | 0.000 fold | 0.041 fold | – | – | – | – | – | – | – | Fold Enrichment relative to AAV9, Brain (Mouse) (brain; [9]): 68.196 fold; Fold Enrichment relative to AAV9, Brain (NHP) [1, 10]: 77.502 fold; Fold Enrichment relative to AAV9, DRG (NHP) ([1]; NGS fold-enrichment, NHP DRG): 0.000 fold; Fold Enrichment relative to AAV9, Heart (NHP) ([1]; NGS fold-enrichment, NHP heart): 0.052 fold; Fold Enrichment relative to AAV9, Liver DNA (NHP) [1, 11]: 0.188 fold; Fold Enrichment relative to AAV9, Liver RNA (NHP) [1, 12]: 0.000 fold; Fold Enrichment relative to AAV9, Muscle (NHP) [1, 13]: 0.041 fold
KTINGSGSPHSKALMRQT | – | – | – | – | – | – | – | 81.332 fold | 57.234 fold | 0.060 fold | 0.036 fold | 0.517 fold | 1.798 fold | 0.100 fold | –
KTINGSGSPHSKALNRQS | 55.945 fold | 0.136 fold | 96.843 fold | 0.532 fold | 0.178 fold | 0.042 fold | 0.000 fold | – | – | – | – | – | – | – | Fold Enrichment relative to AAV9, Brain (Mouse) (brain; [9]): 55.945 fold; Fold Enrichment relative to AAV9, Brain (NHP) [1, 10]: 96.843 fold; Fold Enrichment relative to AAV9, DRG (NHP) ([1]; NGS fold-enrichment, NHP DRG): 0.136 fold; Fold Enrichment relative to AAV9, Heart (NHP) ([1]; NGS fold-enrichment, NHP heart): 0.532 fold; Fold Enrichment relative to AAV9, Liver DNA (NHP) [1, 11]: 0.178 fold; Fold Enrichment relative to AAV9, Liver RNA (NHP) [1, 12]: 0.042 fold; Fold Enrichment relative to AAV9, Muscle (NHP) [1, 13]: 0.000 fold
KTINGSGSPHSKAPGLQT | 144.610 fold | 0.007 fold | 62.043 fold | 0.000 fold | 0.210 fold | 0.651 fold | 0.005 fold | – | – | – | – | – | – | – | –
KTINGSGSPHSKAPGQQT | – | – | – | – | – | – | – | 73.440 fold | 54.071 fold | 0.065 fold | 0.000 fold | 0.179 fold | 0.542 fold | 0.004 fold | –
KTINGSGSPHSKAPNLQI | – | – | – | – | – | – | – | 55.714 fold | 58.022 fold | 0.000 fold | 0.044 fold | 0.243 fold | 1.548 fold | 0.000 fold | –
KTINGSGSPHSKAPSLQT | – | – | – | – | – | – | – | 70.363 fold | 52.137 fold | 0.041 fold | 1.614 fold | 0.222 fold | 0.902 fold | 0.002 fold | –
KTINGSGSPHSKAPSMQT | – | – | – | – | – | – | – | 75.504 fold | 50.249 fold | 0.000 fold | 0.000 fold | 0.460 fold | 0.941 fold | 0.004 fold | –
KTINGSGSPHSKAPSNQT | – | – | – | – | – | – | – | 87.951 fold | 52.680 fold | 1.494 fold | 4.762 fold | 0.208 fold | 0.330 fold | 0.003 fold | –
KTINGSGSPHSKAQAFHT | 86.268 fold | 0.033 fold | 70.159 fold | 0.000 fold | 0.119 fold | 0.762 fold | 0.058 fold | – | – | – | – | – | – | – | –
KTINGSGSPHSKAQAIHT | – | – | – | – | – | – | – | 81.908 fold | 56.047 fold | 0.000 fold | 0.000 fold | 0.890 fold | 0.887 fold | 212.32 fold | –
KTINGSGSPHSKAQAIKT | 73.560 fold | 0.255 fold | 74.261 fold | 0.000 fold | 0.132 fold | 0.186 fold | 0.000 fold | – | – | – | – | – | – | – | –
KTINGSGSPHSKAQAITT | – | – | – | – | – | – | – | 75.250 fold | 56.924 fold | 0.000 fold | 0.000 fold | 0.438 fold | 1.239 fold | 0.000 fold | –
KTINGSGSPHSKAQAKGT | – | – | – | – | – | – | – | 104.917 fold | 51.727 fold | 0.048 fold | 0.016 fold | 0.525 fold | 0.271 fold | 0.000 fold | –
KTINGSGSPHSKAQAKLT | 130.132 fold | 0.000 fold | 71.154 fold | 0.273 fold | 0.777 fold | 1.591 fold | 0.017 fold | – | – | – | – | – | – | – | –
KTINGSGSPHSKAQAMHT | 84.056 fold | 0.000 fold | 62.756 fold | 0.000 fold | 0.393 fold | 0.976 fold | 0.010 fold | – | – | – | – | – | – | – | –
KTINGSGSPHSKAQAPAT | 127.420 fold | 0.000 fold | 61.934 fold | 0.169 fold | 0.197 fold | 0.696 fold | 0.015 fold | – | – | – | – | – | – | – | –
KTINGSGSPHSKAQAPST | 115.528 fold | 0.200 fold | 60.696 fold | 0.005 fold | 0.263 fold | 0.751 fold | 0.000 fold | – | – | – | – | – | – | – | –
